# Data reported in patent US20260285850A1, “SUBSTITUTED OXAZOLIDINONES AND IMIDAZOLINONES AS HERBICIDES” (FMC CORPORATION, priority 2023, published 2026).
# Key:
# Format in all cases: in vivo
# [1] = test system: barnyardgrass (Echinochloa crus-galli); experiment: Test A preemergence soil spray, visual injury rating 0-100; settings: 10 days, 0 = no effect, 100 = complete control
# Procedure, shortened: (§1)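 Grow plants in loam soil blended with sand. Apply formulated compound (non-phytotoxic solvent, surfactant) as a directed soil spray before emergence, or to plants at the one- to two-leaf stage after emergence. Hold in greenhouse 10 days, then rate injury visually versus untreated controls on a 0-100 scale.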
# [2] = test system: blackgrass (Alopecurus myosuroides); experiment: as above; settings: 10 days, 0 = no effect, 100 = complete control
# Procedure, shortened: as §1
# [3] = test system: corn (Zea mays); experiment: as above; settings: 10 days, 0 = no effect, 100 = complete control
# Procedure, shortened: as §1
# [4] = test system: foxtail, giant (giant foxtail, Setaria faberi); experiment: as above; settings: 10 days, 0 = no effect, 100 = complete control
# Procedure, shortened: as §1
# [5] = test system: kochia (Bassia scoparia); experiment: as above; settings: 10 days, 0 = no effect, 100 = complete control
# Procedure, shortened: as §1
# [6] = test system: oat, wild (wild oat, Avena fatua); experiment: as above; settings: 10 days, 0 = no effect, 100 = complete control
# Procedure, shortened: as §1
# [7] = test system: palmer (palmer amaranth, palmer pigweed, Amaranthus palmeri); experiment: as above; settings: 10 days, 0 = no effect, 100 = complete control
# Procedure, shortened: as §1
# [8] = test system: ragweed (common ragweed, Ambrosia artemisiifolia); experiment: as above; settings: 10 days, 0 = no effect, 100 = complete control
# Procedure, shortened: as §1
# [9] = test system: ryegrass, Italian (italian ryegrass, Lolium multiflorum); experiment: as above; settings: 10 days, 0 = no effect, 100 = complete control
# Procedure, shortened: as §1
# [10] = test system: soybean (Glycine max); experiment: as above; settings: 10 days, 0 = no effect, 100 = complete control
# Procedure, shortened: as §1
# [11] = test system: wheat (Triticum aestivum); experiment: as above; settings: 10 days, 0 = no effect, 100 = complete control
# Procedure, shortened: as §1
# [12] = test system: barnyardgrass (Echinochloa crus-galli); experiment: Test A postemergence application, visual injury rating 0-100; settings: Postemergence, 10 days, 0 is no effect, 100 is complete control
# Procedure, shortened: as §1
# [13] = test system: blackgrass (Alopecurus myosuroides); experiment: as above; settings: Postemergence, 10 days, 0 is no effect, 100 is complete control
# Procedure, shortened: as §1
# [14] = test system: corn (Zea mays); experiment: as above; settings: Postemergence, 10 days, 0 is no effect, 100 is complete control
# Procedure, shortened: as §1
# [15] = test system: foxtail, giant (giant foxtail, Setaria faberi); experiment: as above; settings: 10 days, 0 is no effect, 100 is complete control
# Procedure, shortened: as §1
# [16] = test system: galium (catchweed bedstraw, Galium aparine); experiment: as above; settings: Postemergence, 10 days, 0 is no effect, 100 is complete control
# Procedure, shortened: as §1
# [17] = test system: horseweed (Erigeron canadensis); experiment: as above; settings: Postemergence, 10 days, 0 is no effect, 100 is complete control
# Procedure, shortened: as §1
# [18] = test system: kochia (Bassia scoparia); experiment: as above; settings: Postemergence, 10 days, 0 is no effect, 100 is complete control
# Procedure, shortened: as §1
# [19] = test system: oat, wild (wild oat, Avena fatua); experiment: as above; settings: Postemergence, 10 days, 0 is no effect, 100 is complete control
# Procedure, shortened: as §1
# [20] = test system: palmer (palmer amaranth, palmer pigweed, Amaranthus palmeri); experiment: as above; settings: Postemergence, 10 days, 0 is no effect, 100 is complete control
# Procedure, shortened: as §1
# [21] = test system: ragweed (common ragweed, Ambrosia artemisiifolia); experiment: as above; settings: Postemergence, 10 days, 0 is no effect, 100 is complete control
# Procedure, shortened: as §1
# [22] = test system: ryegrass, Italian (italian ryegrass, Lolium multiflorum); experiment: as above; settings: Postemergence, 10 days, 0 is no effect, 100 is complete control
# Procedure, shortened: as §1
# [23] = test system: soybean (Glycine max); experiment: as above; settings: Postemergence, 10 days, 0 is no effect, 100 is complete control
# Procedure, shortened: as §1
# [24] = test system: wheat (Triticum aestivum); experiment: as above; settings: Postemergence, 10 days, 0 is no effect, 100 is complete control
# Procedure, shortened: as §1
# [25] = test system: barnyardgrass (Echinochloa crusgalli); experiment: Test B flooded paddy test, visual plant response rating 0-100; settings: 250 g ai/ha, Flood, applied to paddy water, evaluated after 13 days
# Procedure, shortened: (§2)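 In this flooded assay, 2-leaf seedlings received compound through the water layer, kept at 3 cm over the soil. Plants were held 13 days in a greenhouse and then visually compared with control pots.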
# [26] = test system: ducksalad (Heteranthera limosa); experiment: as above; settings: 250 g ai/ha, Flood, applied to paddy water, evaluated after 13 days
# Procedure, shortened: as §2
# [27] = test system: rice (Oryza sativa); experiment: as above; settings: 250 g ai/ha, Flood, applied to paddy water, evaluated after 13 days
# Procedure, shortened: as §2
# [28] = test system: sedge, umbrella (small-flower umbrella sedge, Cyperus difformis); experiment: as above; settings: 250 g ai/ha, Flood, applied to paddy water, evaluated after 13 days
# Procedure, shortened: as §2
structure (smiles),measurement,setting,value
CC1(C(=O)NC2C=CC(C(=O)NS(C)(=O)=O)C2)CN(c2cc(F)cc(F)c2)C(=O)O1 (stereo not shown) [Compound 30],Barnyardgrass plant response rating (0 to 100 scale),[1]; 125 g ai/ha,60
same,Barnyardgrass plant response rating (0 to 100 scale),[1]; 500 g ai/ha,100
same,Blackgrass plant response rating (0 to 100 scale),[2]; 125 g ai/ha,80
same,Blackgrass plant response rating (0 to 100 scale),[2]; 500 g ai/ha,90
same,Corn plant response rating (0 to 100 scale),[3]; 125 g ai/ha,70
same,Corn plant response rating (0 to 100 scale),[3]; 500 g ai/ha,80
same,"Foxtail, Giant plant response rating (0 to 100 scale)",[4]; 125 g ai/ha,30
same,"Foxtail, Giant plant response rating (0 to 100 scale)",[4]; 500 g ai/ha,100
same,Kochia plant response rating (0 to 100 scale),[5]; 125 g ai/ha,90
same,Kochia plant response rating (0 to 100 scale),[5]; 500 g ai/ha,90
same,"Oat, Wild plant response rating (0 to 100 scale)",[6]; 125 g ai/ha,60
same,"Oat, Wild plant response rating (0 to 100 scale)",[6]; 500 g ai/ha,90
same,"Amaranth, Palmer plant response rating (0 to 100 scale)",[7]; 125 g ai/ha,80
same,"Amaranth, Palmer plant response rating (0 to 100 scale)",[7]; 500 g ai/ha,100
same,Ragweed plant response rating (0 to 100 scale),[8]; 125 g ai/ha,40
same,Ragweed plant response rating (0 to 100 scale),[8]; 500 g ai/ha,60
same,"Ryegrass, Italian plant response rating (0 to 100 scale)",[9]; 125 g ai/ha,70
same,"Ryegrass, Italian plant response rating (0 to 100 scale)",[9]; 500 g ai/ha,90
same,Soybean plant response rating (0 to 100 scale),[10]; 125 g ai/ha,0
same,Soybean plant response rating (0 to 100 scale),[10]; 500 g ai/ha,80
same,Wheat plant response rating (0 to 100 scale),[11]; 125 g ai/ha,90
same,Wheat plant response rating (0 to 100 scale),[11]; 500 g ai/ha,100
same,Barnyardgrass plant response rating (0 to 100 scale),[12]; 125 g ai/ha,100
same,Barnyardgrass plant response rating (0 to 100 scale),[12]; 500 g ai/ha,100
same,Blackgrass plant response rating (0 to 100 scale),[13]; 125 g ai/ha,70
same,Blackgrass plant response rating (0 to 100 scale),[13]; 500 g ai/ha,100
same,Corn plant response rating (0 to 100 scale),[14]; 125 g ai/ha,60
same,Corn plant response rating (0 to 100 scale),[14]; 500 g ai/ha,90
same,"Foxtail, Giant plant response rating (0 to 100 scale)",[15]; 125 g ai/ha,90
same,"Foxtail, Giant plant response rating (0 to 100 scale)",[15]; 500 g ai/ha,90
same,Galium plant response rating (0 to 100 scale),[16]; 125 g ai/ha,80
same,Galium plant response rating (0 to 100 scale),[16]; 500 g ai/ha,80
same,Horseweed plant response rating (0 to 100 scale),[17]; 125 g ai/ha,30
same,Horseweed plant response rating (0 to 100 scale),[17]; 500 g ai/ha,80
same,Kochia plant response rating (0 to 100 scale),[18]; 125 g ai/ha,70
same,Kochia plant response rating (0 to 100 scale),[18]; 500 g ai/ha,80
same,"Oat, Wild plant response rating (0 to 100 scale)",[19]; 125 g ai/ha,100
same,"Oat, Wild plant response rating (0 to 100 scale)",[19]; 500 g ai/ha,100
same,"Amaranth, Palmer / Pigweed, Palmer plant response rating (0 to 100 scale)",[20]; 125 g ai/ha,90
same,"Amaranth, Palmer / Pigweed, Palmer plant response rating (0 to 100 scale)",[20]; 500 g ai/ha,90
same,Ragweed plant response rating (0 to 100 scale),[21]; 125 g ai/ha,20
same,Ragweed plant response rating (0 to 100 scale),[21]; 500 g ai/ha,80
same,"Ryegrass, Italian plant response rating (0 to 100 scale)",[22]; 125 g ai/ha,80
same,"Ryegrass, Italian plant response rating (0 to 100 scale)",[22]; 500 g ai/ha,100
same,Soybean plant response rating (0 to 100 scale),[23]; 125 g ai/ha,60
same,Soybean plant response rating (0 to 100 scale),[23]; 500 g ai/ha,70
same,Wheat plant response rating (0 to 100 scale),[24]; 125 g ai/ha,80
same,Wheat plant response rating (0 to 100 scale),[24]; 500 g ai/ha,80
same,"Plant response rating, Barnyardgrass (0 to 100 scale, 0 is no effect and 100 is complete control)",[25],15
same,"Plant response rating, Ducksalad (0 to 100 scale, 0 is no effect and 100 is complete control)",[26],65
same,"Plant response rating, Rice (0 to 100 scale, 0 is no effect and 100 is complete control)",[27],0
same,"Plant response rating, Sedge, Umbrella (0 to 100 scale, 0 is no effect and 100 is complete control)",[28],95
